For one test, the target named is yeast alpha-glucosidase. In words: Alpha-glucosidase inhibition assay. Type of test: biochemical. To be noted: isolated compounds. How it is done: Extracts and fractions EA1–EA16 were evaluated for the alpha-glucosidase inhibition to choose the fraction for further analysis. The isolation of 1–11 was described in Scheme 1 using silica gel CC with various solvent systems.
Evaluation of the inhibitory activity of 1–11 against yeast alpha-glucosidase followed a previous procedure.[34]

Test [1] addresses alpha-glucosidase. To be noted: cited from earlier work; for IC50: read-out: Alpha-glucosidase inhibition IC50.
For test [2], the system named is alpha-glucosidase. The experiment in a line: Kinetic study of alpha-glucosidase inhibition (Lineweaver–Burk plots). The test is classed as biochemical. How it is done:
To better understand the kinetic parameters of alpha-glucosidase inhibition by 2, the enzyme activity was assessed by varying substrate concentrations in the absence or presence of 2. The inhibition type was identified through Lineweaver–Burk plots (Fig. 3A), where the reciprocal of the reaction rate (1/V) was graphed against the reciprocal of substrate concentrations (1/[S]). This approach allowed monitoring the effect of the inhibitor on both Km and Vmax. […] The inhibition constant for the inhibitor binding with free enzyme (Ki) was determined from a plot of the slope (Km/Vm) versus the inhibitor concentration (Fig. 3B).
The kinetics of 2 against alpha-glucosidase was conducted by varying the concentration of p-NPG substrate in the absence or presence of tested compound at different concentrations (0, 30.0, and 60.0 μM). The Lineweaver–Burk plots were used to determine the inhibition type. In addition, the inhibition constant Ki is an indication of the potency of an inhibitor and was determined from secondary plots of 1/V vs. [I].[35] The Lineweaver–Burk double-reciprocal plot (1/V vs. 1/[S]) was employed to discern the Vmax, […], and mode of inhibition (Fig. 10). [drawing 1]

Test [3] has as its target protein tyrosine phosphatase 1B. On the set-up: method as in PMID 34111550. Conditions: isolated from H. forrestii; read-out: PTP1B inhibition IC50; cited from earlier work.

“Also recorded” adds a separate entry of the source. Read-outs that look alike come from different tables or passages of the source.

Usually IC50 stands for the concentration needed to halve the response being measured. In turn, `COc1c(O)cc2oc3cc(O)c4c(c3c(=O)c2c1CC=C(C)C)OC(C)(C)C(O)C4` (stereo not shown) [Compound 11, 11-hydroxy-1-isomangostin] came in with an IC50 against yeast alpha-glucosidase of over 200 µM. For `COc1cc2oc3cc(O)c(OC)c(CC=C(C)C)c3c(=O)c2c(O)c1CC=C(C)C` [Compound 7, β-mangostin], the IC50 against yeast alpha-glucosidase was over 200 µM. Turning to `C=C(C)C1CC23C(=O)C4(CC=C(C)CCC=C(C)C)CC(CC2C1(C)C)C(C)(C)C(C(=O)c1ccccc1)(C4=O)C3=O` (stereo not shown) [Compound 5, sampsonione D], the midpoint of inhibition against yeast alpha-glucosidase, the IC50, lay at 116 ± 2.7 µM. In the case of `CC(C)=CCCC(C)=CCC12CC3CC4C(C)(C)CCC4(C1=O)C(=O)C(C(=O)c1ccccc1)(C2=O)C3(C)C` (stereo not shown) [Compound 4, hypersampsone I], at yeast alpha-glucosidase, the IC50 is 131 ± 4.6 µM. In general, Ki refers to the equilibrium dissociation constant of an inhibitor or competing ligand from its target. As to `CC(C)=CCC/C(C)=C/C[C@H]1C[C@]2(CC=C(C)C)C(=O)[C@@](CC=C(C)C)(C(=O)C(C(=O)c3ccc(O)c(O)c3)=C2O)[C@]1(C)CCC=C(C)C` [Compound 2, guttiferone I], the IC50 against yeast alpha-glucosidase was 29.4 ± 1.2 µM; on alpha-glucosidase [1] (compound from G. cowa), 13.1 µM. Moreover, in the test with alpha-glucosidase [2] (Lineweaver–Burk plots, Vmax constant, Km increased), the Inhibition type result was “competitive inhibitor; also recorded: competitive type”. In addition, the Ki on alpha-glucosidase [2] (from plot of slope (Km/Vm) versus inhibitor concentration, p-NPG substrate, read-out: Inhibition constant Ki) turned out to be 69.2 µM.

For `CC(C)=CCCC1(C)C(CC=C(C)C)CC23CCC(C)(C)OC2=C(C(=O)c2ccc(O)c(O)c2)C(=O)C1(CC=C(C)C)C3=O` (stereo not shown) [schomburgkianone I], the IC50 on alpha-glucosidase [1] (isolated from Thai G. schomburgkiana sources) is 21.2 µM. `CC(C)=CCCC1(C)C(CC=C(C)C)CC2(CC=C(C)C)C(=O)C(C(=O)c3ccccc3)=C(O)C1C2=O` (stereo not shown) [Guttiferone Q]: on alpha-glucosidase [1], the IC50 is 118 µM.

The molecule `COc1c(O)cc2oc3cc(O)c(CC=C(C)C)c(O)c3c(=O)c2c1CC=C(C)C` [Compound 8, α-mangostin] yielded an IC50 on yeast alpha-glucosidase of over 200 µM. As for `CC(C)=CCC/C(C)=C/C[C@]12C[C@@H]3C[C@H]4C(C)(C)CC[C@@]4(C1=O)C(=O)[C@](C(=O)c1ccccc1)(C2=O)C3(C)C` [Compound 6, sampsonione H], the IC50 was 56.9 ± 1.9 µM at yeast alpha-glucosidase and 6.63 ± 2.4 µM in test [3]. As to `C[C@H]1O[C@H](O[C@H]2[C@H](O)[C@@H](O)[C@@H](O[C@H]3[C@H](O)[C@@H](O)C(O)O[C@@H]3CO)O[C@@H]2CO)[C@H](O)[C@@H](O)[C@@H]1N[C@H]1C=C(CO)[C@@H](O)[C@H](O)[C@H]1O` (stereo partly shown) [acarbose], in the test on alpha-glucosidase [1] (positive control, previous work), the Inhibition type result is listed as “competitive inhibitor”.

On yeast alpha-glucosidase, `CC(C)=CCCC1(C)C(CC=C(C)C)CC2(CC=C(C)C)C(=O)C(C(=O)c3ccccc3)=C(O)C1C2=O` (stereo not drawn) [Compound 1, epi-guttiferone Q] displayed an IC50 of 60.7 ± 3.6 µM. Regarding guttiferone K [Compound 3], the IC50 on yeast alpha-glucosidase was 16.2 ± 0.7 µM.
